Reference: patent US5159085A, “2-anilino phenylacetic acid derivatives as inhibitors of PLA2 and lipoxygenase” (American Home Products Corporation, priority 1991, dated 1992)

Assays:
[1] = system: 6-keto-PGF1α /TxB2; assay: In vivo murine zymosan peritonitis assay, 6-keto-PGF1α (cyclooxygenase pathway); set-up: species or system mouse (male CD-1)
Experimental: The compounds of the invention are evaluated for their ability to inhibit the lipoxygenase and/or cyclooxygenase pathways of arachidonic acid metabolism in the in vivo murine zymosan peritonitis assay.
This assay is carried out as follows:
Male CD-1 mice (8 weeks old) are placed in plastic boxes in groups of six. Animals are injected with 1 ml i.p. of either 1% zymosan in pyrogen free 0.9% saline or saline (unstimulated control). Compounds are dosed orally 1 hour prior to zymosan injection. Twenty minutes after zymosan injection, the mice are asphyxiated by CO2 inhalation and the peritoneal cavity is lavaged with 2 ml ice cold Hanks Balanced Salt Solution (HBSS) without CaCl2, MgSO4 ·7H2 O and MgCL2 ·6H2 O. Peritoneal lavage fluid from each mouse is removed by syringe and placed in 5 ml plastic test tubes put on ice and volume is noted. Preparation of samples for evaluation by ELISA is as follows: Samples are centrifuged at 800×g for 15 minutes; 1 ml of the supernatant is added to 8 ml ice cold methanol and kept at -70° C. overnight to precipitate protein; and samples are then centrifuged at 800×g for 15 minutes, followed by a drying procedure in a Savant speed vac concentrator. The samples are reconstituted with 1 ml ice cold ELISA buffer and stored at -70° C. until assayed. The assay for eicosanoids (LTC4 and 6-keto-PGF1α) is performed according to conventional ELISA procedures.
Compounds to be tested orally are suspended in 0.5% Tween 80. Compounds to be tested intraperitoneally are suspended in 0.5% methylcellulose in 0.9% saline.
The total metabolite level in lavage fluid/mouse is calculated and the significance is determined by a one-way analysis of variance with LSD comparisons to control (p≤0.05). Drug effects are expressed as a percent change from control values.

[2] = system: Pancreatic Lipase PLA2; assay: In vitro isolated phospholipase A2 assay, pancreatic lipase PLA2; type: biochemical
[3] = system: LTB4 synthesis by rat glycogen-elicited polymorphonuclear leukocytes (lipoxygenase); assay: Inhibition of LTB4 synthesis by rat glycogen-elicited polymorphonuclear leukocytes (PMN); type: cell-based, rat (female Wistar); details: Rattus norvegicus, Leukocyte, A 23187 and exogenous AA
Description: This is especially true with respect to 5,12-diHETE, which is also denoted as LTB4 [see Ford-Hitchinson, J. Roy. Soc. Med., 74, 831 (1981)]. Compounds which inhibit the PLA2 -mediated release of arachidonic acid thereby effectively prevent the oxidation of arachidonic acid to the various leukotriene products via the lipoxygenase cascade. Accordingly, the specificity of action of PLA2 inhibitors can be determined by the activity of test compounds in this assay, which measures the ability of compounds to inhibit the synthesis of LTB4 by rat glycogen-elicited polymorphonuclear leukocytes (PMN) in the presence of exogenous substrate.
The assay is carried out as follows:
Rat polymorphonuclear leukocytes (PMNs) are obtained from female Wistar rats (150-200 g) which receive an injection of 6% glycogen (10 ml i.p.). Rats are sacrificed 18-24 hours post injection by CO2 asphyxiation and the elicited cells are harvested by peritoneal lavage using physiological saline (0.9% NaCl). The exudate is centrifuged at 400×g for 10 minutes. The supernatant fluid is discarded and the cell pellet is resuspended to a concentration of 2.0×10^7 cells/ml in HBSS containing Ca^++ and Mg^++ and 10 μM L-cysteine.
To 1 ml aliquots of cell suspension, test drugs or vehicle are added, then preincubated at 37° C. for 10 minutes. A 23187 (1 μM), [^3 H]-AA (3.0 μCi/ml) and unlabeled AA (1 μM) are then added and the samples are further incubated for 10 minutes. The reaction is terminated by centrifugation and pelleting cells. Supernatants are then analyzed by HPLC analysis on a 15 cm×4.6 mm ID supelcosil LC-18 (Supelco)(3M) column, using a two solvent system at a flow rate of 1.4 ml total flow as follows:
Gradient: (system is equillibrated with Solvent A)
Percent solvent changes are accomplished in a linear fashion.
Injections: 150 μl of each supernatant is injected directly onto column and ^3 H arachidonic acid metabolites are monitored using an on-line radioactivity detector (Ramona, IN/US, Fairfield, NJ).
Standards: 10^4 -2.0×10^4 dpm of eicosanoids of interest are injected in 90 μl EtOH cocktail.
Co-chromatography with standard [^3 H] leukotriene B4 (LTB4) in medium of stimulated PMN exposed to drug is compared to that found in medium of stimulated cells exposed to no drug, generating percent inhibition.
Results are expressed as percent inhibition at a given compound dose or as an IC50 value.

In the case of O=C(O)Cc1ccccc1Nc1c(Cl)cccc1Cl [diclofenac, reference compound], the ED50 ([1]; Mus musculus, po, read-out: ED50 6-keto-PGF) is reported as 0.77 mg/kg.

With O=C(O)Cc1cc(OCc2ccc3ccccc3n2)ccc1Nc1c(Cl)cccc1Cl [Example 2, 2-[(2,6-Dichlorophenyl)amino]-5-(2-quinolylmethoxy)benzene acetic acid] the “% Inhibition 6-keto-PGF” value ([1]; 50 mg/kg p.o., negative values denote potentiation) was -25%, the “% Inhibition 6-keto-PGF” value ([1]; 100 mg/kg p.o.) was 65% and the “% Inhibition at a concentration of 10 μM, Pancreatic Lipase” value [2] was 90.1%. The IC50 [3] was 0.01 µM.
